Laboratory results: US20190151290A1 (Hoffmann-La Roche Inc., priority 2015, published 2019)

Assays:
[1] = system: patients with type 2 diabetes mellitus and acute coronary syndrome; format: in vivo; details: aleglitazar 150 μg daily vs placebo, overall population
[2] = system: patients who had a linear GFR decline (diabetic nephropathy patients); details: due to hemodynamic response

With `CO[C@@H](Cc1ccc(OCCc2nc(-c3ccccc3)oc2C)c2ccsc12)C(=O)O` [aleglitazar, (S)-2-methoxy-3-{4-[2-(5-methyl-2-phenyl-oxazol-4-yl)-ethoxy]-benzo[b]thiophen-7-yl}-propionic acid] the “hemoglobin A1C” value [1] was “reduced”, the “incidence of cardiovascular death, myocardial infarction or stroke” value [1] was “did not significantly decrease” and the “serum HDL-C level” value [1] was “improved”. For the same compound, the serum triglyceride level [1] was “improved” and the “initial drop of GFR” value [2] was “reversible after stopping the drug”.
